In experiment [1] the test system is α–SMA protein in NHLF cells. As to the kind of experiment: RapidFire MS/MS quantification of α–SMA (IPQA), standard assay. Particulars: NHLF, 5 ng/ml TGF–β1, lysed 48 h after TGF–β1, normalized to tubulin, mean ± SD, read-out: MS / MS α–SMA IC50. It counts as cell-based, human. The procedure: (§1) Cell culture medium was removed and cells were lysed on ice by adding 5 μl / well of pre–cooled protein extraction buffer containing 10 mM Tris–HCl (pH 8.0), 6 M urea and 2 M thiourea and shaking on ice on a plate shaker at 600 rpm for 30 min.
(§2) Cell lysate was transferred to a 96–well polypropylene–PCR–plate. 15 μl / well denaturation buffer (6 M urea, 50 mM ammonium bicarbonate) and 2 μl / well of 50 mM TCEP were added and samples were denatured for 1 h at 60°C using the Veriti 96–well Fast Thermal Cycler System (Applied Biosystem) with a heated lid. Plates were allowed to cool to RT. Subsequently, 2 μl of 100 mM iodoacetamide were added per well to derivatize cysteine residues. Plates were then sealed and vortexed for 2 min in the dark and incubated for 30 min at 37°C in a thermal cycler with a heated lid. 90 μl of 50 mM ammonium bicarbonate pH 7.8 were added, followed by the addition of 10 μl of trypsin at 0.02 μg / ml. Samples were trypsin–digested overnight at 37°C in a thermal cycler with heated lid. […] Samples were desalted under vacuum using an Oasis HLB 96–well (30 μm particle size, 5 mg sorbent / well) reverse phase cartridge according to the manufacturer’s instructions and eluted with 170 μl of 90% acetonitrile, 0.1% formic acid. Samples were dried down with a flow of nitrogen at 40°C, left to cool to RT and re–suspended in 40 μl 5% acetonitrile, 0.1% formic acid on a plate shaker set to 1400 rpm for 5 min. Plates were centrifuged at 4,000 rpm for 10 min and 2 times 12 μl / well of supernatant were transferred into separate 96–well plates (Greiner Bio–One), sealed and stored at 4°C until analyzed by MS / MS.
(§3) Surrogate tryptic peptides were chosen for detection of COL1 (COL1A1), α–SMA (ACTA) and tubulin (TBA1A1) and crude synthetic peptides were purchased from Thermo Fischer. After several rounds of optimization following standard workflows, […] (COL1 / COL1A1), […] (α–SMA / ACTA) and […] LC–MS / MS analysis was performed on a RapidFire™ RF360 system (Agilent Technologies) coupled to an API 5500 (ABSciex) with positive ion electrospray ionization. […] Detection was performed using multiple reaction monitoring (MRM) mode to monitor parent⟶product ion transitions (m / z). […] The source parameters were curtain gas (CUR) nitrogen: 20 psig; collision gas (CAD): 7 psig; ion source gas 1: 50.0 psig; ion source gas 2: 50.0 psig; ion spray voltage (IS): 5500 V; turbo heater temperature (TEM): 600°C; entrance potential (EP): 10V. Peak areas for COL1A1 and ACTA were normalized by dividing by TBA1A peak area.

Experiment [2] deals with normal human lung fibroblasts (NHLF). As to the kind of experiment: Phenotypic high-content assay (HCA) of TGF–β1–induced fibroblast–to–myofibroblast differentiation. Format: cell-based. To be noted: NHLF, 5 ng/ml TGF–β1 for 48 h, compound added with TGF–β1, mean ± SD, read-out: HCA IC50. The procedure:
The plate was washed 3 times with starvation medium, e.g. fibroblast basal medium (FBM, Lonza) supplemented with 0.1% faf BSA, 100 units / ml of penicillin and 100 μg / ml of streptomycin and 250 ng / ml amphotericin B, and then starved for 24 h in 30 μl volume. NHLF were differentiated into myofibroblasts by incubation with 5 ng / ml TGF–β1 (from a stock of 20 μg / ml in 4 mM HCl, 1 mg / ml BSA) for 48 h. Compounds were prepared as 5x stocks in starvation medium and added to the starved cells to a final 1x concentration concomitant with TGF–β1 addition. The final DMSO concentration in the assay was 0.6% in all wells. 48 h after TGF–β1 addition, the medium was removed and the cells were fixed in methanol for 10 min at room temperature (RT). After fixation, cells were washed 3 times with 1 x PBS and either stored at 4°C for up to 3 days or further processed. […] Images were acquired on the Opera Phenix confocal high–content screening system (Perkin Elmer) using the 20–x water immersion lens.
DAPI stained nuclei were used to identify cells. α–SMA and FN regions were then identified and mapped to the corresponding nuclei for background correction, cell segmentation and cell feature computation to identify, classify and weigh over 400 features per cell. The computed features (S1 Table) comprise, but are not limited to, granularity, intensity, texture, area, shape and solidity of a cell in both α–SMA–and FN–expressing regions. The 0% compound effect (5 ng / ml TGF–β1) and the 100% compound effect (0 ng / ml TGF–β1) controls, were used to train and validate a support vector machine (SVM), a supervised learning model with associated learning algorithm that, once successfully validated, was applied to every cell in every well of the assayed microtiter plate. The SVM allowed autonomous weighting and classification of the characteristics and thus enabled the classifier to decide which characteristics were most relevant for the differentiation of the cell types. […] The classification of each cell was aggregated to a cell type ratio per well, represented as the computed percentage effect value per well indicative of the degree of myofibroblast differentiation. E.g. 100% equals complete myofibroblast differentiation, 0% indicates a pure fibroblast population without any signs of differentiation.

Experiment [3] shares this test system. Nature of the experiment: Impedance measurement of TGF–β1–induced myofibroblast transition (IPQA), standard assay. It counts as cell-based. Particulars: 5 ng/ml TGF–β1, compound added with TGF–β1, impedance at t = 20 h post TGF–β1, mean ± SD, read-out: Impedance IC50. The procedure: To measure dynamic cell shape and adhesion changes during fibrotic transdifferentiation, NHLF were seeded at a density of 20,000 cells per well in FGM–2 growth medium (Lonza) containing 100 units / ml of penicillin and 100 μg / ml of streptomycin into E–plates with continued impedance signal measurement (xCELLigence system, Roche Applied Science). After overnight growth, the medium was exchanged for FBM (Lonza) supplemented with 100 units / ml of penicillin and 100 μg / ml of streptomycin and 0.1% faf BSA and cells were starved for 32 h. Compound dilution series were added and myofibroblast transition was induced by adding TGF–β1 at a concentration of 5 ng / ml, followed by continued impedance sampling for up to 48 h. For data analysis, impedance raw traces were normalized to the time point of compound addition and the baseline response (DMSO, non–TGF–β1 treated cells) was subtracted. In some cases, impedance values at defined time points were used to generate concentration–response curves to determine compound potency and efficacy using GraphPad Prism software version 7 (GraphPad Software Inc).

Experiment [4] has as its system COL1 protein in NHLF cells. As to the kind of experiment: RapidFire MS/MS quantification of COL1 (IPQA), standard assay. It counts as cell-based, human. Particulars: NHLF, 5 ng/ml TGF–β1, lysed 48 h after TGF–β1, normalized to tubulin, mean ± SD, read-out: MS / MS COL1 IC50. The procedure:
as §1, §2, §3

The test system of experiment [5] is α–SMA protein in TGF–β1–induced NHLF myofibroblasts. As to the kind of experiment: MS/MS α–SMA, NHLF myofibroblast reversal assay. Format: cell-based, human. Particulars: Homo sapiens; NHLF pre–stimulated 24 h with 5 ng/ml TGF–β1; representative experiment, S7 Fig D; read-out: IC50, reversal of α–SMA (curve of a single experiment). The procedure:
as §1, §2, §3
(§4) To identify compounds with potential to revert differentiated myofibroblasts to fibroblasts the assay procedures were modified. After 24 h starvation, NHLF cells were stimulated with 5 ng / ml TGF–β1 for 24 h. At t = 24 h TGF–β1 was removed and either vehicle (DMSO) or compounds were added and incubated with the cells for a further 72 h.

The subject of experiment [6] is COL1 protein in TGF–β1–induced NHLF myofibroblasts. Nature of the experiment: MS/MS COL1, NHLF myofibroblast reversal assay. Format: cell-based, human. Particulars: Homo sapiens, Col1; NHLF pre–stimulated 24 h with 5 ng/ml TGF–β1; representative experiment, S7 Fig E; read-out: IC50, reversal of COL1 (curve of a single experiment). The procedure:
as §1, §2, §3, §4

Like-named read-outs stand apart in the source and are kept apart here.

Regarding `Nc1[nH]nc2nnc(-c3c(-c4ccccc4)nn4ccccc34)cc12` [FR180204], the IC50 in experiment [1] was 49 µM; in experiment [2] it was > 46 µM; in experiment [3], 50 µM; in experiment [4], 36 µM.

In the case of `O=C(Nc1cccc(Nc2ncc(Br)c(NCCc3cnc[nH]3)n2)c1)N1CCCC1` [BX–912], the IC50 in experiment [1] was found to be 8.6 µM; in experiment [2], 17 µM; in experiment [3], 7.5 µM; in experiment [4] it was 8.7 µM.

`O=c1cc(N2CCOCC2)oc2c(-c3ccccc3)cccc12` [LY294002]: the IC50 in experiment [1] (Homo sapiens) is 27 µM; in experiment [2] (Homo sapiens, Fibroblast, 48 h), 2.4 µM; in experiment [3] (Fibroblast), 13 µM; in experiment [4] (Homo sapiens, Col1, 48 h) it was 45 µM.

On to `CCCCCCCC(=O)c1c(O)cc(O)cc1CC(=O)OCC` [Csn–B], for which the IC50 in experiment [1] was > 50 µM; in experiment [2] it was 39 µM; in experiment [3] it was > 50 µM; in experiment [4], > 50 µM.

`CC(C)NC[C@@H](C(=O)N1CCN(c2ncnc3c2[C@H](C)C[C@H]3O)CC1)c1ccc(Cl)cc1` [Ipatasertib]: the IC50 in experiment [1] (Homo sapiens) is 25 µM; in experiment [2] (Homo sapiens, Fibroblast, 48 h), 22 µM; in experiment [3] (Fibroblast) it was 43 µM; in experiment [4] (Homo sapiens, Col1), > 50 µM.

Consider `CC[C@@H](C(=O)[C@@H](C)[C@@H](O)[C@H](C)[C@@H]1O[C@@H]([C@@H](CC)C(=O)O)CC[C@@H]1C)[C@H]1O[C@]2(C=C[C@@H](O)[C@]3(CC[C@@](C)([C@H]4CC[C@](O)(CC)[C@H](C)O4)O3)O2)[C@H](C)C[C@@H]1C` [Salinomycin], for which the IC50 in experiment [1] (Homo sapiens) came out at 0.29 ± 0.3 µM; in experiment [2] (Homo sapiens, Fibroblast), 15.8 µM; in experiment [3] (Fibroblast), 1.5 µM; in experiment [4] (Homo sapiens, Col1), 1.2 µM.

With `COc1cc(O)c2c(c1)/C=C/C[C@H](O)[C@H](O)C(=O)/C=C\C[C@H](C)OC2=O` [5Z–7–Oxozeaenol], the IC50 in experiment [1] came out at 0.3 ± 0.27 µM; in experiment [2] it was 2.6 µM; in experiment [3], 0.25 ± 0.17 µM; in experiment [4] it was 0.46 ± 0.27 µM.

Regarding `Oc1c2ccccc2c2c3c(cccc13)N=N2` [SP600125], the IC50 in experiment [1] (Homo sapiens) is 38 µM; in experiment [2] (Homo sapiens, Fibroblast, 48 h), > 46 µM; in experiment [3] (Fibroblast) it was 48.5 µM; in experiment [4] (Homo sapiens, Col1) it was 36 µM.

As for `COc1cccc(-c2cc(=O)c3ccccc3o2)c1N` [PD98059], the IC50 in experiment [1] was 50 µM; in experiment [2], > 46 µM; in experiment [3], 19 µM; in experiment [4] it was > 50 µM.

For the compound `O=C1c2ccc(Nc3ccc(F)cc3F)cc2CCc2ccc(OC[C@H](O)CO)cc21` [L–skepinone], the IC50 is 0.96 ± 0.44 µM in experiment [1] (Homo sapiens); 23 µM in experiment [2] (Homo sapiens, Fibroblast, 48 h); 5 µM in experiment [3] (Fibroblast); 1.5 µM in experiment [4] (Homo sapiens, Col1, 48 h).

`C=C[C@@]1(C)CC(=O)[C@]2(O)[C@@]3(C)[C@@H](O)CCC(C)(C)[C@@H]3[C@H](O)[C@H](OC(C)=O)[C@@]2(C)O1` [Forskolin]: the IC50 in experiment [5] was found to be 5.12 µM; in experiment [6], 1.73 µM.

As for `Cc1cccc(-c2[nH]c(C(C)(C)C)nc2-c2ccc3nccnc3c2)n1` [SB525334], the IC50 in experiment [1] is 0.09 ± 0.005 µM; in experiment [2] it was 2.5 µM; in experiment [3] it was 0.12 ± 0.025 µM; in experiment [4], 0.38 ± 0.11 µM.

As to `CCOc1cc(N2CCC(O)CC2)ccc1Nc1ncc2c(n1)N(C)c1ccccc1C(=O)N2C` [XMD 8–92], the IC50 was found to be 2.4 µM in experiment [1], 12 µM in experiment [2], 4.4 µM in experiment [3] and 5.4 µM in experiment [4].

Regarding `Cn1c(=O)c(Oc2ccc(F)cc2F)cc2cnc(NC(CCO)CCO)nc21` [Pamapimod], the IC50 was 34 µM in experiment [1] (Homo sapiens); > 46 µM in experiment [2] (Homo sapiens, Fibroblast, 48 h); 19 µM in experiment [3] (Fibroblast); > 50 µM in experiment [4] (Homo sapiens, Col1).

Consider `CN(C)Cc1cccc(N/C(=C2\C(=O)Nc3cc(C(=O)N(C)C)ccc32)c2ccccc2)c1` [BIX 02189], for which the IC50 in experiment [1] turned out to be 14 µM; in experiment [2], 22 µM; in experiment [3], 6 µM; in experiment [4] it was 6.5 µM.

For `Cc1ccccc1-n1c(Cn2cnc3c(N)ncnc32)nc2cccc(C)c2c1=O` [IC–87114], the IC50 is > 5 µM in experiment [1], 44 µM in experiment [2], > 5 µM in experiment [3] and 4.9 µM in experiment [4].
